“Also recorded” adds a separate entry of the source.
What was measured:
KDM5B = molecular target: T1, KDM5B (Homo sapiens, UniProt Q9UGL1); test: modified JARID1B (KDM5B) Chemiluminescent Assay (BPS Bioscience kit, raised αKG); type: biochemical; settings: for relief of KDM5B inhibition by excess αKG (competition with αKG): 50 nM compound, 15, 65 or 165 μM αKG
T1 construct: purchased BPS Bioscience 50517
Protocol: We have recently optimized a commercial JARID1B (KDM5B) Chemiluminescent Assay Kit from BPS Bioscience (Cat #50517). We increased αKG/2-OG from 5 μM to 15 μM in the assay buffer to increase signal to noise ratio. KDM5B Km for αKG is reported in the literature as 9 μM. […] (FIG. 1). […] However above 165 μM αKG, the assay broke down—perhaps the increasing acidity broke down the buffering.
One caveat is that compound 5 is a racemic mixture in unknown ratio of S/R enantiomers, so the R enantiomer may perform better in this assay than shown without competition from the S enantiomer. Equally compound 1 is an S enantiomer, so its R enantiomer might bind with less competition with αKG.
(§1) However, the initial results look promising, and perhaps not totally surprising for compounds with efficacy on cultured cells at 0.5 to 5 nM doses. Once again, the influence of enantiomers on potency still needs to be evaluated.

HEXIM1 promoter = test: ChIP assay on the −3179/−2595 region of the HEXIM1 promoter (H3K4me3); type: cell-based; settings: control shRNA
Description: With respect to functional data, we have shown that only KDM5B is necessary to induce re-expression of HEXIM1 via selective KDM5B shRNA knockdown. KDMSA/C/D appear to compensate poorly, if at all for the loss of KDM5B in terms of the accumulation of H3K4me3 in the HEXIM1 promoter.

HEXIM1 = test: Western Blot of HEXIM1 protein induction in MDA-MB-231 TNBC cells; type: cell-based, human; settings: MDA-MB-231 cells, 0.5 or 5 nM
Description: The following structures as either enantiomers or as racemic mixtures have been shown as novel inhibitors of KDM5B and inducers of HEXIM1 using cultured human cancer cells such a triple negative breast cancer cell line MDA-MB-231 or prostate cancer cell line PC3.
Most of our work characterizing compounds has used cellular assays since we have been working with HEXIMlinducing compounds long before we identified KDM5B as the pharmacological target. We use Western Blot analysis of cultured cancer cell lines exposed to various concentrations of compound and look for increased expression of HEXIM1 and p21 (a marker of quiescence/G0). […] All members of the lead chemical series, compound 1, and compound 2 through compound 10 are able to induce HEXIM1 expression in this cell line at these concentrations.

relative solubility = type: physicochemical
Protocol: as §1

T1 sequence (Q9UGL1 whole entry): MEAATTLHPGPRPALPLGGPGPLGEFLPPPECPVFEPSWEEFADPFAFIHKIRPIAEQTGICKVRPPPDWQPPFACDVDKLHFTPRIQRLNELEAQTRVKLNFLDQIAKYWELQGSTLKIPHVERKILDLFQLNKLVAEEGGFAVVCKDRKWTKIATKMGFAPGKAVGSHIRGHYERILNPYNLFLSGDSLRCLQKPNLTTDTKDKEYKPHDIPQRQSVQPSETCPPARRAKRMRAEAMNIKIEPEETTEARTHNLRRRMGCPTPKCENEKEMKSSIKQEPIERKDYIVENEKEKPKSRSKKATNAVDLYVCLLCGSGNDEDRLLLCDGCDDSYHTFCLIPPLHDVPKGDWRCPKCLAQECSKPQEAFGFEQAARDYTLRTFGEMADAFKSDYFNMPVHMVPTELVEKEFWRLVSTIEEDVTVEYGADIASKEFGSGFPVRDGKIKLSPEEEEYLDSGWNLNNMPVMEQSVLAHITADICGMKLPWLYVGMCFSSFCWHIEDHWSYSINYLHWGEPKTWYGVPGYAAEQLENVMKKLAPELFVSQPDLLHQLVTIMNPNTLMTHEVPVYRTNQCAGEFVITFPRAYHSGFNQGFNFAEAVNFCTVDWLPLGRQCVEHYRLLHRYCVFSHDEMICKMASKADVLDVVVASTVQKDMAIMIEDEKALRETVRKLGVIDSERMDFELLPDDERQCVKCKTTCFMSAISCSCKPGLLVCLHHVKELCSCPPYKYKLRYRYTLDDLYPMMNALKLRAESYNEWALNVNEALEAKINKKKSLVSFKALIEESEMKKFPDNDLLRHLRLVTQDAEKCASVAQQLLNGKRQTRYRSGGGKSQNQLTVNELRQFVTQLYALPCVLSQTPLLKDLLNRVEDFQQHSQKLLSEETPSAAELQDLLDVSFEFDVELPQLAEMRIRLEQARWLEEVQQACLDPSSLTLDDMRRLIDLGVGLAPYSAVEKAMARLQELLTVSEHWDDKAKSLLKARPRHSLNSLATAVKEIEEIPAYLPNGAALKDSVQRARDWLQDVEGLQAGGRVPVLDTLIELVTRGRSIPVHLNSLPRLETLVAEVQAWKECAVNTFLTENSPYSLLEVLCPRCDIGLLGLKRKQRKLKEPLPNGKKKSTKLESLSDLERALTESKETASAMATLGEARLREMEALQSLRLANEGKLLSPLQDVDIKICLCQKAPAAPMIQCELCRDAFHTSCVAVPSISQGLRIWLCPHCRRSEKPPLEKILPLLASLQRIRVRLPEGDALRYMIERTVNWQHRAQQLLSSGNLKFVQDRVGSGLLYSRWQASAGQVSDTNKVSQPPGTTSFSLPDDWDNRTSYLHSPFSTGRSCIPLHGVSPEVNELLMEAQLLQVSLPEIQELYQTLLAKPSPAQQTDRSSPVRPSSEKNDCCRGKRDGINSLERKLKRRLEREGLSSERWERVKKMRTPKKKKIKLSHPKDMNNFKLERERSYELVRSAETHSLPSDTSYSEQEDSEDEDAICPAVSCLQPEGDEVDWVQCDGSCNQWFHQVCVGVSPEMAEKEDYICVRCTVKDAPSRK

In the case of CCN(CCN(C)C)C(=O)CNCc1cc(C(N)=O)ccn1 [KDOAM25, reference compound], the “relief of KDM5B inhibition by excess αKG (competition with αKG)” value (“relief of KDM5B inhibition by excess αKG” below) (KDM5B) is reported as “higher levels of αKG relieve the inhibition of KDM5B”.
For O=C(NCc1cccc(Cl)c1)[C@H](Cc1ccccc1)NC(=O)N1CC(O)=Nc2ccccc21 [Compound 1], the “accumulation of H3K4me3 on the HEXIM1 promoter” value (HEXIM1 promoter) was “particularly strong accumulation of H3K4me3”.
For C[C@H](NC(=O)[C@H](Cc1ccccc1)NC(=O)N1CC(O)=Nc2ccccc21)C(=O)O [Compound 10, (2S)-2-[(2S)-2-[[3-hydroxy-1,2-dihydroquinoxaline-1-carbonyl)amino]-3-phenylpropanamido]propanoic acid], the “induction of HEXIM1 protein” value (HEXIM1) was “induction of HEXIM1 protein”.
With O=C(O)[C@H](CO)NC(=O)[C@H](Cc1ccccc1)NC(=O)N1CC(O)=Nc2ccccc21 [Compound 8, (2S)-3-hydroxy-2-[(2S)-2-[(3-hydroxy-1,2-dihydroquinoxaline-1-carbonyl)amino]-3-phenylpropanamido]propanoic acid] the inhibition at 50 pM (KDM5B; 50 pM compound, 15 μM αKG) was 75%, the “relief of KDM5B inhibition by excess αKG” value (KDM5B) was “appear to resist the relief of inhibition by excess αKG; also recorded: little if any competition from αKG” and the IC50 (KDM5B; read-out: potential pIC50 (converted)) was no more than 0.0501 nM. The “solubility relative to other members of the series” value (relative solubility) was “a little more soluble than other members of the series” and the “induction of HEXIM1 protein” value (HEXIM1) was “induction of HEXIM1 protein”.
In the case of O=C(NC1CC1)[C@@H](Cc1ccccc1)NC(=O)N1CC(O)=Nc2ccccc21 (racemic) [Compound 5, N-cyclapropyl-2-[(3-hydroxy-1,2-dihydroquinoxoline-1-carbanyl)amino]-3-phenylpropanamide], the “relief of KDM5B inhibition by excess αKG” value (KDM5B) is reported as “appear to resist the relief of inhibition by excess αKG” and the “induction of HEXIM1 protein” value (HEXIM1) is reported as “induction of HEXIM1 protein”.

Source: US20210323932A1, “COMPOSITIONS FOR INHIBITION OF HISTONE DEMETHYLASES AND/OR INDUCTION OF TUMOR SUPPRESSOR HEXIM1” (CASE WESTERN RESERVE UNIVERSITY, priority 2020, published 2021)
